Legend:
[1] = Aging promotion testing: sunlight 30 min / fading one hour cycles, 10 days (durability, coloring degree); type: physicochemical
Experimental: In order to promote the aging, furthermore, the following testing was conducted. That is, the obtained photochromic polymer was irradiated with sunlight for 30 minutes to develop color, and its color was permitted to fade for one hour in the light of a fluorescent lamp. This cycle was repeated three times a day for a total of 10 days.
The photochromic properties before and after aged were evaluated by evaluating the color densities before and after aged. The initial color density (T0) and the color density (T30) ten days after the aging promotion testing were measured, and the durability was expressed as described below.
Furthermore, the coloring degrees of before developing color were measured before and after aged by using a color difference meter (SM-4) manufactured by Suga Shikenki Co.
7 Coloring degree before being aged=YI(0).
8 Change in the coloring degree (ΔYI)=YI(10)-YI(0)
YI(10): coloring degree after aged
(§1) Photochromic polymers were prepared in the same manner as in Example 42 but using the chromene compounds obtained in Examples 2 to 41, and their maximum absorption wavelengths, color densities, fading rates, changes in the coloring degrees and durabilitys were measured.
(§2) For the purpose of comparison, furthermore, the compounds represented by the following formulas (a), (b), (c), (d), (e) and (f) were measured for their maximum absorption wavelengths, color densities, fading rates, changes in the coloring degrees and durabilitys.
(§3) The procedure was carried out in the same manner as in Example 42 but using 100 parts of AC1 and 133 parts of BC1, the sum of the amounts of AC1 and BC1 being 0.04% by weight. The obtained photochromic polymer was measured for its maximum absorption wavelength, initial color, color density, color-developing sensitivity, fading rate, durability and change in the coloring degree.
(§4) The procedure was carried out in the same manner as in Example 83 but using the known chromene compounds shown in Table 6 instead of the chromene compound used in Example 83. […]
The obtained polymer (2 mm thick) was caused to develop color outdoors, and tones of the developed color were observed by eyes 30 seconds and 15 minutes after it was brought to the outdoors, and uniformity in the step of developing color was evaluated. […] Furthermore, the aging promoting testing was conducted in the same manner as in Example 42 to find a coloring degree (YI(0)) before aged and a change in the coloring degree (ΔY).

[2] = Photochromic properties of cast polymer (2 mm thick) under xenon lamp irradiation for 120 seconds; type: physicochemical
Experimental: 0.04% by weight of the chromene compound obtained in Example 1 was added to 70 parts of 4G, 15 parts of 3G, 10 parts of GMA, 5 parts of HEMA and 1 part of perbutyl ND, and was mixed together to a sufficient degree. The mixture solution was poured into a mold constituted by a glass plate and a gasket of an ethylene/vinyl acetate copolymer, and was cast-polymerized. By using an air furnace, the polymerization was conducted in a manner that the temperature was gradually raised from 30° C. to 90° C. over a period of 18 hours, and was held at 90° C. for 2 hours. After the polymerization, the polymer was taken out from the glass mold.
By using a xenon lamp, L-2480 (300 W) SHL-100, manufactured by Hamamatsu Photonics Co., the obtained polymer (2 mm thick) was irradiated with a beam of an intensity of 365 nm=2.4 mW/cm^2 and 245 nm=24 μW/cm^2 on the surface of the polymer for 120 seconds through an aero-mass filter (manufactured by Corning Co.) at 20° C.±1° C. to develop color and to measure the photochromic properties which were expressed in the following manner.
1 Maximum absorption wavelength (λmax): λmax of the polymer after it has developed color was found by using a spectrophotometer (instantaneous multi-channel photo-detector, MCPD1000) manufactured by Otsuka Denshi Kogyo Co.
2 Initial color ( ε(0)): Absorbency of the polymer in a non-irradiated state at a wavelength same as the maximum absorption wavelength of when it is irradiated with light.
3 Color density (-)=ε(120)-ε(0). ε(120): Absorbency of the polymer at a maximum absorption wavelength after it was irradiated for 120 seconds under the above-mentioned conditions.
4 Color-developing sensitivity (-/min.)=Saturated color density/xenon irradiation time.
Rate of increase in the color density per a unit time until the color density is saturated.
5 Color fading rate [t1/2 (min.)]=time required until the absorbency of the polymer drops down to one-half of [ε(120)-ε(0)] after irradiated for 120 seconds.
as §1, §2, §3, §4

[3] = YI(10)-YI(0), single chromene compound in polymer, 10 days aging, Table 5
[4] = single chromene compound in polymer, 10 days aging, Table 5
[5] = single chromene compound 0.04% by weight in polymer, 20° C., Table 5
[6] = single chromene compound 0.04% by weight in polymer, 120 seconds, 20° C., Table 5
[7] = chromene composition, or other chromene C1-C4, 10 days aging, Table 6

Row | Structure (SMILES) | Change in the coloring degree ΔYI [1, 3] | Light resistance (durability) [1, 4] [%] | Fading rate t1/2 [2, 5] [min] | Maximum absorption wavelength λmax [2, 5] [nm] | Color density ε(120)-ε(0) [2, 6] | Change in the coloring degree ΔYI [1, 7] | Durability [1, 7] [%] | λ max ([2]; chromene composition, or other chromene C1-C4, 0.04% by weight in polymer, Table 6) [nm] | Color density ε(120)-ε(0) ([2]; chromene composition, or other chromene C1-C4, 120 seconds, Table 6) | Initial color ε(0) ([2]; chromene composition, or other chromene C1-C4, non-irradiated, Table 6) | Fading rate t1/2 ([2]; chromene composition, or other chromene C1-C4, Table 6) [min] | Color-developing sensitivity ([2]; saturated color density/xenon irradiation time, Table 6)
1 | COc1ccc(C2(c3ccc(OC)cc3)C=Cc3c(C)cc4ccccc4c3O2)cc1 [Compound 26] | 2.3 | 99 | 6.0 | 504 | 1.2 | – | – | – | – | – | – | –
2 | C1=CC2(Oc3c1ccc1ccccc31)C1CCCC2CCC1 (stereo not shown) [d, reference compound] | 1.5 | 98 | 11 | 452 | 1.0 | – | – | – | – | – | – | –
3 | CCOc1ccc(C2(c3ccc(OCC)cc3)C=Cc3c(C)cc4ccccc4c3O2)cc1 [Compound 29] | 2.4 | 98 | 5.8 | 504 | 1.2 | – | – | – | – | – | – | –
4 | CC(C)(C)c1cc2ccccc2c2c1C=CC(c1ccccc1)(c1ccccc1)O2 [Compound 1] | 0.2 | 99 | 3.6 | 462 | 0.7 | – | – | – | – | – | – | –
5 | COc1ccc(C2(c3ccco3)C=Cc3c(C)cc4c(F)ccc(C)c4c3O2)cc1 (stereo not shown) [Compound 41] | 3.2 | 95 | 6.3 | 510 | 1.0 | – | – | – | – | – | – | –
6 | CCCc1cc2c(CC)cc(OCC)cc2c2c1C=CC(c1ccc(OC)cc1)(c1cccs1)O2 (stereo not shown) [Compound 40] | 2.7 | 96 | 5.2 | 524 | 0.9 | – | – | – | – | – | – | –
7 | COc1ccc(C2(c3cccs3)C=Cc3c(C)cc4ccccc4c3O2)cc1 (stereo not shown) [Compound 32] | 2.7 | 96 | 6.5 | 512 | 1.0 | – | – | – | – | – | – | –
8 | CC(C)c1cc2ccccc2c2c1C=CC1(O2)C2CC3CC(C2)CC1C3 (stereo not shown) [Compound 25] | 2.2 | 92 | 2.0 | 454 | 0.7 | – | – | – | – | – | – | –
9 | CC(C)c1cc2cc(O)ccc2c2c1C=CC(c1cccs1)(c1cccs1)O2 [Compound 9] | 2.2 | 94 | 2.2 | 500 | 0.6 | – | – | – | – | – | – | –
10 | Cc1c2c(c3ccccc3c1C)OC(c1ccccc1)(c1ccccc1)C=C2 [Compound C3, 5,6-Dimethyl-2,2-diphenyl-2H-benzo(h)chromene, reference compound] | – | – | – | – | – | 5.0 | 95 | 480 | 1.0 | 0.01 | 10 | 0.2 -/min.
11 | CC(C)(C)c1cc2ccccc2c2c1C=CC(c1ccccc1)(c1ccc(OC(F)(F)F)cc1)O2 (stereo not shown) [Compound 17] | 0.7 | 98 | 3.2 | 452 | 0.7 | – | – | – | – | – | – | –
12 | CC(C)(C)c1cc2ccccc2c2c1C=CC(c1ccccc1)(c1cc3ccccc3s1)O2 (stereo not shown) [Compound 11] | 1.9 | 97 | 3.4 | 485 | 1.0 | – | – | – | – | – | – | –
13 | CCc1cc2ccccc2c2c1C=CC(c1ccc(OC)cc1)(c1ccc(OC)cc1)O2 [Compound 28] | 2.5 | 96 | 5.5 | 502 | 1.0 | – | – | – | – | – | – | –

Reference: patent US6197225A, “Chromene compound” (Tokuyama Corporation, priority 1997, dated 2001)
